Values quoted from earlier work in patent US20060205656A1 (priority 1999, published 2006).

Conditions: in vivo

In the case of contulakin-G, the “potency in inhibiting pain relative to neurotensin” value is listed as “significantly more potent than neurotensin”.
